Test results reported in patent US12221425B2, “Process for the preparation of CIC-1 chloride channel inhibitors” (NMD PHARMA A/S, priority 2019, dated 2025).

Biological target: T1, human CIC-1 channels (Homo sapiens, UniProt P35523)
T1 construct: host or cells: CHO (Chinese hamster ovary) cells constitutively expressing human ClC-1
Assay: Automated whole cell patch clamp (Qpatch 16) on CHO cells expressing human CIC-1, compound added intracellularly
Type: cell-based
Details: compound in intracellular solution vs vehicle control patches, positive shift reflects CIC-1 inhibition
Method: The investigatory goal of these experiments was to evaluate how compounds affect the open probability and current amplitude of human CIC-1 channels expressed in CHO cells. Experiments were performed using an automated patch clamp system that allowed high throughput testing of whole cell patches together with both intracellular and extracellular addition of compound.
Automated whole cell patch clamp experiments were performed with the Qpatch 16 system (Sophion Bioscience, Ballerup, Denmark) at room temperature. Data acquisition and analysis were performed in the Qassay software (ver. 5.6, Odense).
To evoke CIC-1 currents in whole cell patches, the membrane potential was initially stepped from a holding potential of −30 mV to +60 mV for 100 ms and then to various test voltages (sweeps) ranging from +120 mV to −140 mV in steps of 20 mV for 300 ms. To obtain tail currents, the membrane potential was stepped to −100 mV after each test voltage for 300 ms and then relaxed to −30 mV for 2 sec between sweeps (FIG. 1). I/V relationships for whole cell instant and steady state current amplitudes were obtained by plotting average current densities at the beginning and at the end of the 300 ms step against the membrane potential (FIG. 2).
In order to determine the relative overall open probability (P0), the instantaneous tail currents were normalized to the maximal tail current obtained following the most positive voltage step and plotted against the test voltage. Plots of normalized tail currents from each whole cell patch were then fitted to a Boltzmann function allowing determination of half activation voltages (V1/2, FIG. 3).
For automated patch clamp experiments extracellular solutions contained: 2 mM CaCl2, 1 mM MgCl2, 10 mM HEPES, 4 mM KCl, 145 mM NaCl, 10 mM Glucose, pH adjusted to 7.4 with NaOH (2 M). Osmolality adjusted to ˜320 using sucrose.
Intracellular solutions contained: 80 mM CsF, 60 mM CsCl, 5/1 mM KOH/EGTA, 10 mM HEPES, 10 mM NaCl, pH adjusted to 7.2 with NaOH (2 M). Osmolality adjusted to ˜320 mOsm using sucrose.
Cells used in patch clamp experiments were Chinese hamster ovary cells (CHO) constitutively expressing human CIC-1 channels. The amino acid sequence encoded by the cDNA used to create this cell line was identical to the translated sequence for GenBank accession number NM_000083.2. Cells were produced by Charles River (Catalogue CT6175, Cleveland OH, USA) in a cryopreserved format. Experiments were performed on the cells directly after thawing (3×10^6 cells used in each experiment).
To evaluate the compound effect on CIC-1, when applied directly to the intracellular side of the cell membrane, the half activation voltage, V1/2, was determined from whole cell patches with compound added to the intracellular solution and then compared to V1/2 determined from control cell patches with only vehicle added to the intracellular solution. Additionally, the effect of extracellular added compound was evaluated by determine V1/2 and steady state current amplitudes before and after exchanging the extracellular solution to contain compound.
The difference in half activation voltage of CIC-1 channels, ΔV1/2, was determined as the difference between the cell patches treated intracellularly with compound and control cells patches and is reported in Table 1 below. A positive shift in ΔV1/2 is reflecting CIC-1 channel inhibition by the tested compound. P-values of <0.05 is considered significant.

T1 sequence (P35523 whole entry): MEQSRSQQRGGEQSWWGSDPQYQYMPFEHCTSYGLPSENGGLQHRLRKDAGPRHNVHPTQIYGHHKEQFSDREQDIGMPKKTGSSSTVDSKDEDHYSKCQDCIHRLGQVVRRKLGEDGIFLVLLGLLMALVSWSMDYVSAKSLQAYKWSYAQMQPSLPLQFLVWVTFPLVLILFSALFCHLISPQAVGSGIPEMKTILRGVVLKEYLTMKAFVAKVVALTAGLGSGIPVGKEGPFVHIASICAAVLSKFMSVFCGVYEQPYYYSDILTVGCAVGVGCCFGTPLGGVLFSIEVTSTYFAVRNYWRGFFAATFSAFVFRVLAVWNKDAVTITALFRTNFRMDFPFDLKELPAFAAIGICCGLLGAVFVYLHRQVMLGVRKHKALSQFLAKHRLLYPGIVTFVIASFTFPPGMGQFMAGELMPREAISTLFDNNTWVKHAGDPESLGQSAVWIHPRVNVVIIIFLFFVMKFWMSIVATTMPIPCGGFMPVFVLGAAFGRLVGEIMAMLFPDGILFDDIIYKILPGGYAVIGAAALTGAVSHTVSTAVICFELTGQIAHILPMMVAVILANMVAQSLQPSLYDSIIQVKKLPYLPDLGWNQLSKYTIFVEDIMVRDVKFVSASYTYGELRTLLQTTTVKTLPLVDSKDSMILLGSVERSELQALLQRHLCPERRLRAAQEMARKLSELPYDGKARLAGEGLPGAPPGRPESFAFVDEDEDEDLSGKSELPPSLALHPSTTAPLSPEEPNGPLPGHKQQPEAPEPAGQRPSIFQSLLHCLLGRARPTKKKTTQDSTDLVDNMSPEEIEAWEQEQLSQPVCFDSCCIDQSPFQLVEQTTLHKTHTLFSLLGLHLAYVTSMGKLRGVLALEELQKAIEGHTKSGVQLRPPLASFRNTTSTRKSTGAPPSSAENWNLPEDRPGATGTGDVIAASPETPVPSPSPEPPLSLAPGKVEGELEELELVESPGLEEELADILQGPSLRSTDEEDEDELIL

Structure (SMILES)	Shift in half activation voltage, ΔV1/2 [mV]
O=C(O)COc1ccc(Br)cc1-c1ccon1 [2-[4-bromo-2-(1,2-oxazol-3-yl)phenoxy]acetic acid]	11.3
C[C@H](Oc1ccc(Br)cc1-c1ccon1)C(=O)O [(2S)-2-(4-bromo-2-(isoxazol-3-yl)phenoxy)propanoic acid]	14.1
CC[C@H](Oc1ccc(Br)cc1-c1ccon1)C(=O)O [(2S)-2-[4-bromo-2-(1,2-oxazol-3-yl)phenoxy]butanoic acid]	7.2
C[C@H](Oc1cc(F)c(Br)cc1-c1ccon1)C(=O)O [(2S)-2-[4-bromo-5-fluoro-2-(1,2-oxazol-3-yl)phenoxy]propanoic acid]	17.7
C[C@H](Oc1ccc(Cl)cc1-c1ccon1)C(=O)O [(2S)-2-[4-chloro-2-(1,2-oxazol-3-yl)phenoxy]propanoic acid]	8.1
